Experimental data: patent US11685732B2, “MYST family histone acetyltransferase inhibitors” (Epizyme, Inc., priority 2017, dated 2023)
Like-named read-outs stand apart in the source and are kept apart here.

Legend:
KAT-5 = KAT-5 (Homo sapiens (Human), UniProt Q92993); test: KAT-5 biochemical inhibition assay (SAMDI mass spectrometry)
How it was run: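 Acetylation of 1 μM peptide by 9 nM enzyme with 0.5 μM acetyl-CoA (final) was run 90 min at 25° C in Tris pH 8.0 buffer with DTT, after compound preincubation at 2% DMSO. Formic acid stopped the reaction, and product was quantified by SAMDI mass spectrometry to derive IC50.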

KAT-6A = KAT-6A (Homo sapiens (Human), UniProt Q92794); test: KAT-6A biochemical inhibition assay (SAMDI mass spectrometry)
Sequence of KAT-6A (Q92794 other isoform, or with tags, fused parts or gaps): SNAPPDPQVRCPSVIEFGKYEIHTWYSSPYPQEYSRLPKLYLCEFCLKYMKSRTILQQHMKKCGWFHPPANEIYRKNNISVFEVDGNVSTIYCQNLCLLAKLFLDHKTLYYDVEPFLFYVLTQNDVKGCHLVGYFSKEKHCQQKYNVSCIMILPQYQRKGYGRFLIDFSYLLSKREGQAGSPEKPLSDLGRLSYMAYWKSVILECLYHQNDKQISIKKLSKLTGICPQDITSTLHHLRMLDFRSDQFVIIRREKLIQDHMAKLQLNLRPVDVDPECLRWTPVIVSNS
How it was run: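 IC50 values came from SAMDI time-of-flight mass spectrometry after formic acid quench (0.5% final). Acetylation ran 90 min at 25 °C with 1 μM acetyl coenzyme A and 1 μM peptide substrate, following compound pre-incubation with 12.5 nM KAT-6A in Tris buffer pH 8.0 containing DTT, 2% DMSO final.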

KAT-7 = KAT-7 (Homo sapiens (Human), UniProt O95251); test: KAT-7 biochemical inhibition assay (SAMDI mass spectrometry)
Sequence of KAT-7 (O95251 other isoform, or with tags, fused parts or gaps): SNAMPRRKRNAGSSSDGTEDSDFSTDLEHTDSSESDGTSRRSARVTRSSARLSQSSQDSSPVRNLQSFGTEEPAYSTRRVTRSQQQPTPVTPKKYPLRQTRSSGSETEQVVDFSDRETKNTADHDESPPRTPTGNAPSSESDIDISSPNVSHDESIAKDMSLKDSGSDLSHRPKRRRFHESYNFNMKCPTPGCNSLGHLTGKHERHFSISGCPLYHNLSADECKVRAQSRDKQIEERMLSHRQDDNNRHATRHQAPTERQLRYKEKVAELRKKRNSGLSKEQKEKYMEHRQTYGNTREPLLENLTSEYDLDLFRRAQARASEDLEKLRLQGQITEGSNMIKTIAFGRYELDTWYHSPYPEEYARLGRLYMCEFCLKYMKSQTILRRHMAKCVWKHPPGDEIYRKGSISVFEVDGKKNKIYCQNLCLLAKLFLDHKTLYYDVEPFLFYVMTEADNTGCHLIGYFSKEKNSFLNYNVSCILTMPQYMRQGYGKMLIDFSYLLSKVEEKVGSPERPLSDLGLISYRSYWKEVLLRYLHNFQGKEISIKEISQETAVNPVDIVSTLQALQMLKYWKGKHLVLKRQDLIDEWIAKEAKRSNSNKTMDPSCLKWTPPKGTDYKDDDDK
How it was run: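 Read-out was SAMDI time-of-flight MS of formic acid-quenched reactions (0.5% final). Compound dilutions (2% DMSO final) were pre-incubated with 6 nM KAT-7 in 50 mM Tris pH 8.0 with 1 mM DTT, then given 1 μM peptide substrate and 2 μM acetyl-CoA for 120 min at 25 °C. IC50 values were derived.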

KAT-8 = KAT-8 (Homo sapiens (Human), UniProt Q9H7Z6); test: KAT-8 biochemical inhibition assay (SAMDI mass spectrometry)
Sequence of KAT-8 (Q9H7Z6 other isoform, or with tags, fused parts or gaps): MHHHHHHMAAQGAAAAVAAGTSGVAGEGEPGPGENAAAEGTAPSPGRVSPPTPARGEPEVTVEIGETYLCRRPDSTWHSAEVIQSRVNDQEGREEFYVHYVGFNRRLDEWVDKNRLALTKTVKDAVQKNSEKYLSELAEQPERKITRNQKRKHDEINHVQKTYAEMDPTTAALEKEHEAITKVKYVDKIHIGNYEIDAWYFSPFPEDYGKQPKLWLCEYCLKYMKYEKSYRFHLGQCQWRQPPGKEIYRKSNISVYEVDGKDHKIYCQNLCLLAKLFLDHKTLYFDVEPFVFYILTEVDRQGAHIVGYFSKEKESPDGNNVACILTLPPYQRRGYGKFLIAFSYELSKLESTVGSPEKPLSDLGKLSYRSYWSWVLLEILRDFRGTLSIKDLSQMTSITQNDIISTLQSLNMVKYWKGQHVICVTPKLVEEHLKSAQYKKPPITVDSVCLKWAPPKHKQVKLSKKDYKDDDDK
How it was run: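 Acetylation of 1 μM peptide substrate with 5 μM acetyl-CoA by 12.5 nM enzyme, compound pre-incubated, 2% DMSO, Tris pH 8.0 buffer with DTT, 25 °C for 90 min. Quench with 0.5% formic acid; product read by SAMDI mass spectrometry to give IC50.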

Sequence of KAT-5 (Q92993 other isoform, or with tags, fused parts or gaps): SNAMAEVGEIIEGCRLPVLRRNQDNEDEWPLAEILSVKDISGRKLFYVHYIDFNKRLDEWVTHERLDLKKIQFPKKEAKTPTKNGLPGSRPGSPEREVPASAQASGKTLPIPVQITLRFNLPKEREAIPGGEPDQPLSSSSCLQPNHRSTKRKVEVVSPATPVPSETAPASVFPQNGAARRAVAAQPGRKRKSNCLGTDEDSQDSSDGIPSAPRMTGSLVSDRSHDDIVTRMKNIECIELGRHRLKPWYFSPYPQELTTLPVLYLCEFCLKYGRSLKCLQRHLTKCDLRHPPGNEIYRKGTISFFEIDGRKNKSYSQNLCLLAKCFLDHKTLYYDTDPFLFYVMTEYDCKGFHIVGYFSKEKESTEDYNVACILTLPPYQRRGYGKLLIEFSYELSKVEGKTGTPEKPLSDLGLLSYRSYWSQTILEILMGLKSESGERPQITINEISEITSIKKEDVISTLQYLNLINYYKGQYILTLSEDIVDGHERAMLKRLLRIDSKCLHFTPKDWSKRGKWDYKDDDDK

| Structure (SMILES) | IC50 (KAT-5) [µM] | IC50 (KAT-6A) [µM] | IC50 (KAT-7) [µM] | IC50 (KAT-8) [µM] | IC50 (KAT-5; Table 6, comparative compounds) [µM] | IC50 (KAT-6A; Table 6, comparative compounds) [µM] | IC50 (KAT-7; Table 6, comparative compounds) [µM] | IC50 (KAT-8; Table 6, comparative compounds) [µM] |
| --- | --- | --- | --- | --- | --- | --- | --- | --- |
| O=C(NNS(=O)(=O)CC1CCOCC1)c1cc(-c2cocn2)cc(Cl)c1F [Compound I-68] | < 10 | 10 to 50 | 10 to 50 | 10 to 50 | – | – | – | – |
| CC(=O)N[C@H]1C[C@H](CS(=O)(=O)NNC(=O)c2cc(-c3cn(C)cn3)cc(Cl)c2F)C1 [Compound I-125] | 10 to 50 | 10 to 50 | < 10 | 10 to 50 | – | – | – | – |
| CCCn1cc(-c2cc(C)c(F)c(C(=O)NNS(=O)(=O)C3CCCCC3)c2)cn1 [Compound I-151] | 50 to 100 | > 100 | 10 to 50 | > 100 | – | – | – | – |
| Cn1cnc(-c2cc(Cl)c(F)c(C(=O)NNS(=O)(=O)CC34CCC(CC3)CC4)c2)c1 [Compound I-334] | < 10 | < 10 | < 10 | 10 to 50 | – | – | – | – |
| CCOc1ccc(S(=O)(=O)NNC(=O)c2cc(-c3cn(C)cn3)cc(Cl)c2F)cc1 [Compound I-380] | < 10 | < 10 | < 10 | 10 to 50 | – | – | – | – |
| CN[C@H]1CC[C@@H](CS(=O)(=O)NNC(=O)c2cc(-c3cn(C)cn3)cc(Cl)c2F)CC1 [Compound I-364] | 10 to 50 | 10 to 50 | < 10 | 10 to 50 | – | – | – | – |
| Cc1ncn(-c2cc(Cl)c(F)c(C(=O)NNS(=O)(=O)C3CCOCC3)c2)n1 [Compound I-77] | 10 to 50 | 10 to 50 | 10 to 50 | 10 to 50 | – | – | – | – |
| CNC(=O)N1CC[C@@H](CS(=O)(=O)NNC(=O)c2cc(-c3cn(C)cn3)cc(Cl)c2F)C1 [Compound I-209] | < 10 | 10 to 50 | < 10 | 10 to 50 | – | – | – | – |
| COCCn1cc(-c2cc(C)c(F)c(C(=O)NNS(=O)(=O)C3CCCCC3)c2)cn1 [Compound I-152] | 10 to 50 | > 100 | > 100 | > 100 | – | – | – | – |
| Cn1cnc(-c2cc(Cl)c(F)c(C(=O)NNS(=O)(=O)C[C@H]3C[C@H](N)C3)c2)c1 [Compound I-123] | 10 to 50 | 10 to 50 | < 10 | 10 to 50 | – | – | – | – |
| O=C(NNS(=O)(=O)CC1CCCCC1)c1cc(-n2ccnn2)cc(Cl)c1F [Compound I-87] | 10 to 50 | < 10 | 10 to 50 | 10 to 50 | – | – | – | – |
| Cn1cnc(-c2cc(Cl)c(F)c(C(=O)NNS(=O)(=O)C[C@H]3CC[C@H](NC(=O)Cc4cccnc4)CC3)c2)c1 [Compound I-258] | < 10 | < 10 | < 10 | 10 to 50 | – | – | – | – |
| Cc1cc(-c2cnn(C)c2)cc(C(=O)NNS(=O)(=O)C2CCCCC2)c1F [Compound I-156] | 10 to 50 | > 100 | < 10 | > 100 | – | – | – | – |
| COc1ccc(CN(C)C(=O)N2CC[C@@H](CS(=O)(=O)NNC(=O)c3cc(-c4cn(C)cn4)cc(Cl)c3F)C2)cc1 [Compound I-179] | < 10 | < 10 | < 10 | 10 to 50 | – | – | – | – |
| CCNC(=O)N[C@H]1CCC[C@@H](CS(=O)(=O)NNC(=O)c2cc(-c3cn(C)cn3)cc(Cl)c2F)C1 [Compound I-287] | < 10 | < 10 | < 10 | 10 to 50 | – | – | – | – |
| Cn1ccc(-c2cc(Cl)c(F)c(C(=O)NNS(=O)(=O)CC3CCCCC3)c2)n1 [Compound I-4] | < 10 | < 10 | < 10 | 50 to 100 | – | – | – | – |
| CC(=O)N[C@H]1C[C@@H](CS(=O)(=O)NNC(=O)c2cc(-c3cn(C)cn3)cc(Cl)c2F)C1 [Compound I-116] | < 10 | < 10 | < 10 | 10 to 50 | – | – | – | – |

| Structure (SMILES) | IC50 (KAT-5) [µM] | IC50 (KAT-6A) [µM] | IC50 (KAT-7) [µM] | IC50 (KAT-8) [µM] | IC50 (KAT-5; Table 6, comparative compounds) [µM] | IC50 (KAT-6A; Table 6, comparative compounds) [µM] | IC50 (KAT-7; Table 6, comparative compounds) [µM] | IC50 (KAT-8; Table 6, comparative compounds) [µM] |
| --- | --- | --- | --- | --- | --- | --- | --- | --- |
| CC1CCC(CS(=O)(=O)NNC(=O)c2cc(-c3cn(C)cn3)cc(Cl)c2F)CC1 (stereo not shown) [Compound I-313] | < 10 | < 10 | < 10 | 10 to 50 | – | – | – | – |
| O=C(NNS(=O)(=O)CC1CCCNC1)c1cc(-c2ccccc2)cc(Cl)c1F (stereo not shown) [A, reference compound] | – | – | – | – | 10 to 50 | 10 to 50 | 50 to 100 | > 100 |
| Cc1nc(-c2cc(Cl)c(F)c(C(=O)NNS(=O)(=O)C3CCOCC3)c2)cn1C [Compound I-37] | 50 to 100 | 10 to 50 | 10 to 50 | > 100 | – | – | – | – |
| Cc1nc(-c2cc(Cl)c(F)c(C(=O)NNS(=O)(=O)CC3CCOCC3)c2)cs1 [Compound I-70] | 10 to 50 | 10 to 50 | 10 to 50 | 10 to 50 | – | – | – | – |
| Cc1ncc(-c2cc(Cl)c(F)c(C(=O)NNS(=O)(=O)C3CCCCC3)c2)n1C [Compound I-59] | 10 to 50 | > 100 | > 100 | > 100 | – | – | – | – |
| Cn1cnc(-c2cc(Cl)c(F)c(C(=O)NNS(=O)(=O)C[C@H]3CC[C@H](NC(=O)c4ccccn4)CC3)c2)c1 [Compound I-245] | < 10 | < 10 | < 10 | 10 to 50 | – | – | – | – |
| Cn1cnc(-c2cc(Cl)c(F)c(C(=O)NNS(=O)(=O)c3cnn(CCOCc4ccccc4)c3)c2)c1 [Compound I-361] | 10 to 50 | 10 to 50 | < 10 | 10 to 50 | – | – | – | – |
| Cn1cnc(-c2cc(Cl)c(F)c(C(=O)NNS(=O)(=O)CC3CCCC(NC(=O)c4cccnc4)C3)c2)c1 (stereo not shown) [Compound I-236] | < 10 | < 10 | < 10 | 10 to 50 | – | – | – | – |
| CCS(=O)(=O)N1CCC(CS(=O)(=O)NNC(=O)c2cc(-c3cn(C)cn3)cc(Cl)c2F)C1 (stereo not shown) [Compound I-75] | < 10 | < 10 | < 10 | 10 to 50 | – | – | – | – |
| Cc1cc(-c2cn(C)cn2)cc(C(=O)NNS(=O)(=O)CC2CCCN(C(=O)OC(C)(C)C)C2)c1F (stereo not shown) [Compound I-132] | < 10 | < 10 | < 10 | > 100 | – | – | – | – |
| Cn1cnc(-c2cc(Cl)c(F)c(C(=O)NNS(=O)(=O)CC3CCCC(NC(=O)Cc4cccnc4)C3)c2)c1 (stereo not shown) [Compound I-243] | < 10 | < 10 | < 10 | 10 to 50 | – | – | – | – |
| CCNC(=O)N1[C@H]2CC[C@H](CS(=O)(=O)NNC(=O)c3cc(-c4cn(C)cn4)cc(Cl)c3F)[C@@H]1CC2 [Compound I-265] | < 10 | < 10 | < 10 | 10 to 50 | – | – | – | – |
| Cn1cc(-c2cc(Cl)c(F)c(C(=O)NNS(=O)(=O)CC3CCCCC3)c2)cn1 [Compound I-158] | < 10 | 10 to 50 | < 10 | > 100 | – | – | – | – |
| CCn1cnc(-c2cc(C)c(F)c(C(=O)NNS(=O)(=O)C3CCCCC3)c2)c1 [Compound I-126] | < 10 | 10 to 50 | < 10 | > 100 | – | – | – | – |
| Cn1cnc(-c2cc(Cl)c(F)c(C(=O)NNS(=O)(=O)C[C@H]3CC[C@H](NC(=O)OC(C)(C)C)CC3)c2)c1 [Compound I-96] | < 10 | < 10 | < 10 | 10 to 50 | – | – | – | – |
| Cc1ccn(-c2cc(Cl)c(F)c(C(=O)NNS(=O)(=O)CC3CCOCC3)c2)n1 [Compound I-43] | 10 to 50 | < 10 | 50 to 100 | > 100 | – | – | – | – |
| CN(C)C(=O)N1CCC(CS(=O)(=O)NNC(=O)c2cc(-c3cn(C)cn3)cc(Cl)c2F)C1 (stereo not shown) [Compound I-66] | < 10 | < 10 | < 10 | 10 to 50 | – | – | – | – |
